Measured values taken from patent publication US20230295118A1 (EnhancedBio Inc., priority 2022, published 2023).

Tests used:
Type in all cases: cell-based
[1] = test system: mantle cell lymphoma cell (Mino or JeKo-1); assay: Antiproliferative effect, MTS cell viability assay; conditions: 72 h, mantle cell lymphoma cell (Mino or JeKo-1), MTS assay, read-out: IC50 (anti-proliferation)
Experimental: Antiproliferative effect of the exemplary compounds was assessed in B-cell malignancy models.
To assess the effect of the exemplary compounds on cell viability in B-cell malignancy models by degradation of CDK4/6 proteins, Mino cells were treated with varying concentrations of exemplary compounds (0, 0.0001, 0.001, 0.01, 0.1, 1 μM) or positive control (palbociclib and abemaciclib). Under these conditions, cell viability was determined by an MTS assay. Cytotoxicity was assayed by the determination of reduced tetrazolium (formazan) created by metabolically active cells as detected at 490 nanometers (nm) absorbance using a microplate reader (BMG Labtech, Cary, NC, USA).
The exemplary compounds attenuated the viability of Mino cells in a concentration-dependent manner at 72 h post treatment. Results are shown in Table 1 and FIGS. 2-15 for each exemplary compound.

CDK4 = target: T1, CDK4 (Homo sapiens, UniProt P11802); assay: CDK4 degradation (DC50, Dmax)
T1 construct: endogenous in cells
T1 sequence (P11802 whole entry): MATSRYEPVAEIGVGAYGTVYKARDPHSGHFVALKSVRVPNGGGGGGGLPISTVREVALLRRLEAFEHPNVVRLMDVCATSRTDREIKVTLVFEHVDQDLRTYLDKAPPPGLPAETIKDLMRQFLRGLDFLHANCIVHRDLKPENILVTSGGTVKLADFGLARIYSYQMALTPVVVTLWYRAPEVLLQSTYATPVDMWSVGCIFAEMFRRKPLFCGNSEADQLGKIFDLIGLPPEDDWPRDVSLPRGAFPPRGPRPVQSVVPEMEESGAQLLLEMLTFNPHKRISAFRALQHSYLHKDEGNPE

CDK6 = target: T2, CDK6 (Homo sapiens, UniProt Q00534); assay: CDK6 degradation (DC50, Dmax)
T2 construct: endogenous in cells
T2 sequence (Q00534 whole entry): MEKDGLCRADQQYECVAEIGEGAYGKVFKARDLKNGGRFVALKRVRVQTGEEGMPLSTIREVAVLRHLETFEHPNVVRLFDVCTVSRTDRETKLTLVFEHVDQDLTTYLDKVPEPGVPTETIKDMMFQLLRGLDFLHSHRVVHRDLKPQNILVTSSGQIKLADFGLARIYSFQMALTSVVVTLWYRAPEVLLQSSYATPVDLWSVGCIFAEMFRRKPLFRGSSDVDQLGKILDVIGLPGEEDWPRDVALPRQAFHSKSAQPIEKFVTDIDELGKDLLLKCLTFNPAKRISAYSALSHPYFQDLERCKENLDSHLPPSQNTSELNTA

Compound | IC50 [1] [nM] | DC50 (CDK4) [nM] | Dmax (CDK4) [%] | DC50 (CDK6) [nM] | Dmax (CDK6) [%]
CC(=O)c1c(C)c2cnc(Nc3ccc(N4CCN(C(=O)N5CCN(CC6CCN(c7ccc8c(c7)CN(C7CCC(=O)NC7=O)C8=O)CC6)CC5)CC4)cn3)nc2n(C2CCCC2)c1=O (stereo not shown) [Compound 16, 3-(5-(4-((4-(4-(6-((6-acetyl-8-cyclopentyl-5-methyl-7-oxo-7,8-dihydropyrido[2,3-d]pyrimidin-2-yl)amino)pyridin-3-yl)piperazine-1-carbonyl)piperazin-1-yl)methyl)piperidin-1-yl)-1-oxoisoindolin-2-yl)piperidine-2,6-dione] | > 200 | > 200 | > 50 | > 200 | > 50
CC(=O)c1c(C)c2cnc(Nc3ccc(N4CCN(C(=O)N5CCC(CN6CCC(c7ccc8c(c7)C(=O)N(C7CCC(=O)NC7=O)C8=O)CC6)CC5)CC4)cn3)nc2n(C2CCCC2)c1=O (stereo not shown) [Compound 17, 5-(1-((1-(4-(6-((6-acetyl-8-cyclopentyl-5-methyl-7-oxo-7,8-dihydropyrido[2,3-d]pyrimidin-2-yl)amino)pyridin-3-yl)piperazine-1-carbonyl)piperidin-4-yl)methyl)piperidin-4-yl)-2-(2,6-dioxopiperidin-3-yl)isoindoline-1,3-dione] | 50 to 200 | 50 to 200 | > 50 | 50 to 200 | > 50
CC(=O)c1c(C)c2cnc(Nc3ccc(N4CCN(C(=O)N5CCC(CN6CCC(c7ccc8c(c7)CN(C7CCC(=O)NC7=O)C8=O)CC6)CC5)CC4)cn3)nc2n(C2CCCC2)c1=O (stereo not shown) [Compound 18, 3-(5-(1-((1-(4-(6-((6-acetyl-8-cyclopentyl-5-methyl-7-oxo-7,8-dihydropyrido[2,3-d]pyrimidin-2-yl)amino)pyridin-3-yl)piperazine-1-carbonyl)piperidin-4-yl)methyl)piperidin-4-yl)-1-oxoisoindolin-2-yl) piperidine-2,6-dione] | > 200 | > 200 | > 50 | > 200 | > 50
CC(=O)c1c(C)c2cnc(Nc3ccc(N4CCN(C(=O)N5CCC(CCN6CCN(c7ccc8c(c7)C(=O)N(C7CCC(=O)NC7=O)C8=O)CC6)CC5)CC4)cn3)nc2n(C2CCCC2)c1=O (stereo not shown) [Compound 19, 5-(4-(2-(1-(4-(6-((6-acetyl-8-cyclopentyl-5-methyl-7-oxo-7,8-dihydropyrido[2,3-d]pyrimidin-2-yl)amino)pyridin-3-yl)piperazine-1-carbonyl)piperidin-4-yl)ethyl)piperazin-1-yl)-2-(2,6-dioxopiperidin-3-yl)isoindoline-1,3-dione] | < 50 | 50 to 200 | > 60 | 50 to 200 | > 60
CC(=O)c1c(C)c2cnc(Nc3ccc(N4CCN(C(=O)N5CCC(CCN6CCN(c7ccc8c(c7)CN(C7CCC(=O)NC7=O)C8=O)CC6)CC5)CC4)cn3)nc2n(C2CCCC2)c1=O (stereo not shown) [Compound 20, 3-(5-(4-(2-(1-(4-(6-((6-acetyl-8-cyclopentyl-5-methyl-7-oxo-7,8-dihydropyrido[2,3-d]pyrimidin-2-yl)amino)pyridin-3-yl)piperazine-1-carbonyl)piperidin-4-yl)ethyl)piperazin-1-yl)-1-oxoisoindolin-2-yl)piperidine-2,6-dione] | 50 to 200 | 50 to 200 | > 60 | 50 to 200 | > 60
CC(=O)c1c(C)c2cnc(Nc3ccc(N4CCN(C(=O)N5CCN(CCN6CCN(c7ccc8c(c7)C(=O)N(C7CCC(=O)NC7=O)C8=O)CC6)CC5)CC4)cn3)nc2n(C2CCCC2)c1=O (stereo not shown) [Compound 21, 5-(4-(2-(4-(4-(6-((6-acetyl-8-cyclopentyl-5-methyl-7-oxo-7,8-dihydropyrido[2,3-d]pyrimidin-2-yl)amino)pyridin-3-yl)piperazine-1-carbonyl)piperazin-1-yl)ethyl)piperazin-1-yl)-2-(2,6-dioxopiperidin-3-yl)isoindoline-1,3-dione] | 50 to 200 | 50 to 200 | > 60 | 50 to 200 | > 60
CC(=O)c1c(C)c2cnc(Nc3ccc(N4CCN(C(=O)N5CCN(CCN6CCN(c7ccc8c(c7)CN(C7CCC(=O)NC7=O)C8=O)CC6)CC5)CC4)cn3)nc2n(C2CCCC2)c1=O (stereo not shown) [Compound 22, 3-(5-(4-(2-(4-(4-(6-((6-acetyl-8-cyclopentyl-5-methyl-7-oxo-7,8-dihydropyrido[2,3-d]pyrimidin-2-yl)amino)pyridin-3-yl)piperazine-1-carbonyl)piperazin-1-yl)ethyl)piperazin-1-yl)-1-oxoisoindolin-2-yl)piperidine-2,6-dione] | > 200 | > 200 | > 60 | > 200 | > 60

Continued, values first:

IC50 [1] [nM] | DC50 (CDK4) [nM] | Dmax (CDK4) [%] | DC50 (CDK6) [nM] | Dmax (CDK6) [%] | Compound
> 200 | > 200 | > 60 | > 200 | > 60 | CC(=O)c1c(C)c2cnc(Nc3ccc(N4CCN(C(=O)N5CCN(CCC6CCN(c7ccc8c(c7)C(=O)N(C7CCC(=O)NC7=O)C8=O)CC6)CC5)CC4)cn3)nc2n(C2CCCC2)c1=O (stereo not shown) [Compound 23, 5-(4-(2-(4-(4-(6-((6-acetyl-8-cyclopentyl-5-methyl-7-oxo-7,8-dihydropyrido[2,3-d]pyrimidin-2-yl)amino)pyridin-3-yl)piperazine-1-carbonyl)piperazin-1-yl)ethyl)piperidin-1-yl)-2-(2,6-dioxopiperidin-3-yl) isoindoline-1,3-dione]
> 200 | > 200 | > 50 | > 200 | > 50 | CC(=O)c1c(C)c2cnc(Nc3ccc(N4CCN(C(=O)N5CCN(CCC6CCN(c7ccc8c(c7)CN(C7CCC(=O)NC7=O)C8=O)CC6)CC5)CC4)cn3)nc2n(C2CCCC2)c1=O (stereo not shown) [Compound 24, 3-(5-(4-(2-(4-(4-(6-((6-acetyl-8-cyclopentyl-5-methyl-7-oxo-7,8-dihydropyrido[2,3-d]pyrimidin-2-yl)amino)pyridin-3-yl)piperazine-1-carbonyl)piperazin-1-yl)ethyl)piperidin-1-yl)-1-oxoisoindolin-2-yl)piperidine-2,6-dione]
50 to 200 | > 200 | > 60 | 50 to 200 | > 60 | CC(=O)c1c(C)c2cnc(Nc3ccc(N4CCN(C(=O)N5CCC(CCC6CCN(c7ccc8c(c7)C(=O)N(C7CCC(=O)NC7=O)C8=O)CC6)CC5)CC4)cn3)nc2n(C2CCCC2)c1=O (stereo not shown) [Compound 25, 5-(4-(2-(1-(4-(6-((6-acetyl-8-cyclopentyl-5-methyl-7-oxo-7,8-dihydropyrido[2,3-d]pyrimidin-2-yl)amino)pyridin-3-yl)piperazine-1-carbonyl)piperidin-4-yl)ethyl)piperidin-1-yl)-2-(2,6-dioxopiperidin-3-yl)isoindoline-1,3-dione]
50 to 200 | > 200 | > 50 | > 200 | > 50 | CC(=O)c1c(C)c2cnc(Nc3ccc(N4CCN(C(=O)N5CCC(CCC6CCN(c7ccc8c(c7)CN(C7CCC(=O)NC7=O)C8=O)CC6)CC5)CC4)cn3)nc2n(C2CCCC2)c1=O (stereo not shown) [Compound 26, 3-(5-(4-(2-(1-(4-(6-((6-acetyl-8-cyclopentyl-5-methyl-7-oxo-7,8-dihydropyrido[2,3-d]pyrimidin-2-yl)amino)pyridin-3-yl)piperazine-1-carbonyl)piperidin-4-yl)ethyl)piperidin-1-yl)-1-oxoisoindolin-2-yl)piperidine-2,6-dione]
50 to 200 | > 200 | > 60 | > 200 | > 60 | CC(=O)c1c(C)c2cnc(Nc3ccc(N4CCN(C(=O)N5CCN(CCN6CCC(c7ccc8c(c7)C(=O)N(C7CCC(=O)NC7=O)C8=O)CC6)CC5)CC4)cn3)nc2n(C2CCCC2)c1=O (stereo not shown) [Compound 27, 5-(1-(2-(4-(4-(6-((6-acetyl-8-cyclopentyl-5-methyl-7-oxo-7,8-dihydropyrido[2,3-d]pyrimidin-2-yl)amino)pyridin-3-yl)piperazine-1-carbonyl)piperazin-1-yl)ethyl)piperidin-4-yl)-2-(2,6-dioxopiperidin-3-yl)isoindoline-1,3-dione]
50 to 200 | > 200 | > 60 | > 200 | > 60 | CC(=O)c1c(C)c2cnc(Nc3ccc(N4CCN(C(=O)N5CCN(CCN6CCC(c7ccc8c(c7)CN(C7CCC(=O)NC7=O)C8=O)CC6)CC5)CC4)cn3)nc2n(C2CCCC2)c1=O (stereo not shown) [Compound 28, 3-(5-(1-(2-(4-(4-(6-((6-acetyl-8-cyclopentyl-5-methyl-7-oxo-7,8-dihydropyrido[2,3-d]pyrimidin-2-yl)amino)pyridin-3-yl)piperazine-1-carbonyl)piperazin-1-yl)ethyl)piperidin-4-yl)-1-oxoisoindolin-2-yl)piperidine-2,6-dione]
> 200 | > 200 | > 50 | > 200 | > 50 | CC(=O)c1c(C)c2cnc(Nc3ccc(N4CCN(C(=O)N5CCC(CCN6CCC(c7ccc8c(c7)C(=O)N(C7CCC(=O)NC7=O)C8=O)CC6)CC5)CC4)cn3)nc2n(C2CCCC2)c1=O (stereo not shown) [Compound 29, 5-(1-(2-(1-(4-(6-((6-acetyl-8-cyclopentyl-5-methyl-7-oxo-7,8-dihydropyrido[2,3-d]pyrimidin-2-yl)amino)pyridin-3-yl)piperazine-1-carbonyl)piperidin-4-yl)ethyl)piperidin-4-yl)-2-(2,6-dioxopiperidin-3-yl)isoindoline-1,3-dione]
